We go through 9 compounds from patent US11447504B2, “Macrocyclic chlorine substituted indole derivatives” (Bayer Aktiengesellschaft, priority 2017, dated 2022).

Where a name gives a salt, the structure may show the parent alone. Read-outs that look alike come from different tables or passages of the source.

One data set deals with MV-4-11. As to the kind of experiment: Antiproliferation assay 7, MV-4-11. As to conditions: MV-4-11 cells, 72 hours, CellTiter-Glo; read-out: Antiproli MV-4-11 IC50 median. In kind it is cell-based. A digest of the protocol:
(§1)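 Proliferation over 72 h at 37° C was assessed by luminescent cell viability reagent, referenced to a day 0 plate.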
(In ATP-based viability assays light output follows the ATP content of the culture.)

In data set [1] the test system is SUDHL10. As to the kind of experiment: Induction of cytotoxicity (Assay 6), SUDHL10. As to conditions: read-out: Cytotox SUDHL10 IC50 (median); SUDHL10 cells, 5 hours, CellTiter-Glo.
A further data set deals with AMO-1. As to the kind of experiment: Antiproliferation assay 7, AMO-1. In kind it is cell-based. As to conditions: AMO-1 cells, CellTiter-Glo, read-out: Antiproli AMO-1 IC50 median. A digest of the protocol: as §1
The next data set relates to HMC-1-8. Nature of the data set: Antiproliferation assay 7, HMC-1-8. The format is cell-based. The conditions noted are these: HMC-1-8 cells, CellTiter-Glo, read-out: Antiproli HMC-1-8 IC50 median. The protocol:
Assessment of the Anti-Proliferative Effect of Compounds in Different Cell Lines
The impact of compounds on the proliferation of different cell lines was assessed using the CellTiter-Glo® Luminescent Cell Viability reagent from Promega (G7573).
In parallel, cells were plated in a reference (day 0) plate for time zero determination.
Rim wells were excluded. The cells were incubated for 72 hours in a humidified incubator at 37° C. The day 0 plate was measured by adding 30 μL/well of CTG solution (CellTiter-Glo® Luminescent Cell Viability reagent, Promega G7573) to time zero wells in the reference plate followed by a 10 minutes incubation and luminescence reading at 0.1 ms. using the PHERAstar FS microplate reader (BMG Labtech).
After 72 hours incubation, the treated plates were measured in the same way as the day 0 plate mentioned above.

In data set [2] the test system is SUDHL5. Nature of the data set: Induction of caspase-3/7 activity (Assay 4), SUDHL5. The format is cell-based. The conditions noted are these: SUDHL5 cells, 3 hours, Caspase-Glo 3/7; read-out: Caspase SUDHL5 EC50 (median). Put shortly:
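DLBCL cells treated with compounds for 3 hours at 37° C. Caspase-3/7 activity measured by Caspase-Glo 3/7 luminescence, with medium-only background subtracted.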

Data set [3] has as its system SUDHL10. As to the kind of experiment: Induction of caspase-3/7 activity (Assay 4), SUDHL10. In kind it is cell-based. The conditions noted are these: SUDHL10 cells, 3 hours, Caspase-Glo 3/7; read-out: Caspase SUDHL10 EC50 (median). A digest of the protocol:
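Luminescent Caspase-Glo 3/7 read-out after a 3 h, 37 °C compound exposure of the DLBCL line SUDHL10. Values are background-corrected using medium-only wells.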

The subject of data set [4] is SUDHL5. As to the kind of experiment: Induction of cytotoxicity (Assay 6), SUDHL5. The conditions noted are these: read-out: Cytotox SUDHL5 IC50 (median); SUDHL5 cells, 5 hours, CellTiter-Glo.
For data set [5], the system named is SUDHL5. As to the kind of experiment: Antiproliferation assay 7, SUDHL5. In kind it is cell-based. The conditions noted are these: SUDHL5 cells, 72 hours, CellTiter-Glo; read-out: Antiproli SUDHL5 IC50 (median). A digest of the protocol:
as §1

As a reminder, the IC50 is the concentration needed to halve the response being measured. By EC50 is commonly meant the concentration that produces a half-maximal response. `CCc1nn(CCN2CCOCC2)c2c1-c1c(Cl)ccc3c(CCCOc4cccc5ccccc45)c(C(=O)O)n(c13)CCCCN(C)C2` (single isomer, unassigned; enantiomer 1) [Example 46, 4-chloro-3-ethyl-14-methyl-1-[2-(morpholin-4-yl)ethyl]-7-{3-[(naphthalen-1-yl)oxy]propyl}-10,11,12,13,14,15-hexahydro-1H-pyrazolo[3′,4′:8,9][1,6]diazacycloundecino[10,11,1-hi]indole-8-carboxylic Acid (Enantiomer 1)]: the IC50 in the data set on MV-4-11 was 490 nM; in the data set on SUDHL10 [1] it was 300 nM; in the data set on AMO-1 (72 hours), 180 nM; with HMC-1-8 (72 h), 819 nM; with SUDHL5 [4], 180 nM; with SUDHL5 [5] it was 200 nM. Further, the EC50 in the data set on SUDHL5 [2] is 160 nM; in the data set with SUDHL10 [3], 400 nM.
With `CCc1c2c(nn1C)CN(C)CCCCn1c(C(=O)O)c(CCCOc3cccc4cc(F)ccc34)c3ccc(Cl)c-2c31` (single isomer, unassigned; enantiomer 1) [Example 6, 4-chloro-3-ethyl-7-{3-[(6-fluoronaphthalen-1-yl)oxy]propyl}-2,14-dimethyl-10,11,12,13,14,15-hexahydro-2H-pyrazolo[3′,4′:8,9][1,6]diazacycloundecino[10,11,1-hi]indole-8-carboxylic Acid (Enantiomer 1)], the IC50 in the data set with MV-4-11 stood at 79.4 nM; in the data set on SUDHL10 [1], 350 nM; with AMO-1 (72 hours), 369 nM; in the data set on HMC-1-8 (72 h), 1210 nM; with SUDHL5 [4], 190 nM; in the data set on SUDHL5 [5], 230 nM. Further, the concentration giving a half-maximal response (EC50) with SUDHL5 [2] worked out at 130 nM; in the data set on SUDHL10 [3] it was 340 nM.
With `CCc1nn(C)c2c1-c1c(Cl)ccc3c(CCCOc4cccc5cc(F)ccc45)c(C(=O)O)n(c13)CCCCN(C)C2` (single isomer, unassigned; enantiomer 1) [Example 40, 4-chloro-3-ethyl-7-{3-[(6-fluoronaphthalen-1-yl)oxy]propyl}-1,14-dimethyl-10,11,12,13,14,15-hexahydro-1H-pyrazolo[3′,4′:8,9][1,6]diazacycloundecino[10,11,1-hi]indole-8-carboxylic Acid (Enantiomer 1)], the 50% inhibitory concentration (IC50) was 95.5 nM in the data set with MV-4-11; 290 nM with SUDHL10 [1]; 539 nM with AMO-1 (72 hours); 695 nM in the data set on HMC-1-8 (72 h); 110 nM in the data set on SUDHL5 [4]; 150 nM with SUDHL5 [5]. Besides, the figures for the EC50 in the data set on SUDHL5 [2] and in the data set with SUDHL10 [3] were 140 nM and 310 nM, respectively.
With `CCc1c2c(nn1C)COCCCCn1c(C(=O)O)c(CCCOc3cccc4cc(F)ccc34)c3ccc(Cl)c-2c31` (single isomer, unassigned; enantiomer 1) [Example 37, (+)-4-chloro-3-ethyl-7-{3-[(6-fluoronaphthalen-1-yl)oxy]propyl}-2-methyl-2,10,11,12,13,15-hexahydropyrazolo[4′,3′:9,10][1,6]oxazacycloundecino[8,7,6-hi]indole-8-carboxylic acid-N-ethylethanamine Salt (Enantiomer 1)], the IC50 came out at 377 nM in the data set on MV-4-11; 363 nM with AMO-1 (72 hours); 1130 nM in the data set on HMC-1-8 (72 h); 200 nM in the data set on SUDHL5 [4]; 280 nM in the data set on SUDHL5 [5]. In addition, the EC50 with SUDHL5 [2] came to 170 nM.
With `Cc1c2c(nn1C)CN(CC(F)(F)F)CCCCn1c(C(=O)O)c(CCCOc3cccc4cc(F)ccc34)c3ccc(Cl)c-2c31` (single isomer, unassigned; enantiomer 2) [Example 60, 4-chloro-7-{3-[(6-fluoronaphthalen-1-yl)oxy]propyl}-2,3-dimethyl-14-(2,2,2-trifluoroethyl)-10,11,12,13,14,15-hexahydro-2H-pyrazolo[3′,4′:8,9][1,6]diazacycloundecino[10,11,1-hi]indole-8-carboxylic Acid—Enantiomer 2], the IC50 is 26000 nM in the data set on SUDHL10 [1]; 25500 nM with AMO-1 (72 hours); > 30000 nM with HMC-1-8 (72 hours); 12000 nM in the data set on SUDHL5 [4]; 20000 nM with SUDHL5 [5]. The EC50 was determined as 9000 nM in the data set on SUDHL5 [2] and 27000 nM with SUDHL10 [3].
Consider `CCc1nn(C)c2c1-c1c(Cl)ccc3c(CCCOc4cccc5cc(F)ccc45)c(C(=O)O)n(c13)CCCCOC2` (single isomer, unassigned; enantiomer 1) [Example 34, (+)-4-chloro-3-ethyl-7-{3-[(6-fluoronaphthalen-1-yl)oxy]propyl}-1-methyl-1,10,11,12,13,15-hexahydropyrazolo[4′,3′:9,10][1,6]oxazacycloundecino[8,7,6-hi]indole-8-carboxylic Acid (Enantiomer 1)], for which the 50% inhibitory concentration (IC50) in the data set on MV-4-11 was 1260 nM; in the data set with AMO-1 (72 hours), 1410 nM; in the data set on HMC-1-8 (72 h), 2030 nM; in the data set on SUDHL5 [4], 530 nM; in the data set on SUDHL5 [5], 620 nM. In addition, in the data set with SUDHL5 [2], the EC50 is 380 nM.
For the compound `CCc1c2c(nn1C)CN(C)CCCCn1c(C(=O)O)c(CCCOc3cccc4ccccc34)c3ccc(Cl)c-2c31` (single isomer, unassigned; enantiomer 1) [Example 23, 4-chloro-3-ethyl-2,14-dimethyl-7-[3-(naphthalen-1-yloxy)propyl]-10,11,12,13,14,15-hexahydro-2H-pyrazolo[3′,4′:8,9][1,6]diazacycloundecino[10,11,1-hi]indole-8-carboxylic Acid (Enantiomer 1)], the IC50 was found to be 387 nM in the data set on MV-4-11; 310 nM in the data set on SUDHL10 [1]; 613 nM in the data set with AMO-1 (Homo sapiens, AMO1, 72 h); 5160 nM in the data set with HMC-1-8 (72 h); 140 nM in the data set on SUDHL5 [4]. The EC50 with SUDHL5 [2] came to 92 nM.
As for `Cc1c2c(nn1C)COCC(F)(F)CCn1c(C(=O)O)c(CCCOc3cccc4ccccc34)c3ccc(Cl)c-2c31` (single isomer, unassigned; enantiomer 2) [Example 57, 4-chloro-12,12-difluoro-2,3-dimethyl-7-{3-[(naphthalen-1-yl)oxy]propyl}-2,10,11,12,13,15-hexahydropyrazolo[4′,3′:9,10][1,6]oxazacycloundecino[8,7,6-hi]indole-8-carboxylic acid-N-ethylethanamine Salt—Enantiomer 2], the IC50 with SUDHL10 [1] is 10000 nM; in the data set with AMO-1 (72 hours) it was 11800 nM; in the data set on HMC-1-8 (72 hours) it was 8680 nM; with SUDHL5 [4] it was 6900 nM; in the data set with SUDHL5 [5], 3900 nM. Further, the figures for the EC50 in the data set on SUDHL5 [2] and in the data set on SUDHL10 [3] were 7600 nM and 13000 nM, respectively.
For `CCc1c2c(nn1C)N(CCC1CCOCC1)CCCCCn1c(C(=O)O)c(CCCOc3cccc4cc(F)ccc34)c3ccc(Cl)c-2c31` (single isomer, unassigned; enantiomer 1) [Example 81, 4-chloro-3-ethyl-7-{3-[(6-fluoronaphthalen-1-yl)oxy]propyl}-2-methyl-15-[2-(oxan-4-yl)ethyl]-10,11,12,13,14,15-hexahydro-2H-pyrazolo[4′,3′:4,5][1,6]diazacycloundecino[3,2,1-hi]indole-8-carboxylic acid N-ethylethanamine Salt—Enantiomer 1], the half-maximal inhibitory concentration (IC50) in the data set with SUDHL10 [1] amounted to 230 nM; with AMO-1 (Homo sapiens, AMO1, 72 h), 120 nM; in the data set with HMC-1-8 (72 h) it was 1900 nM; in the data set on SUDHL5 [4], 290 nM; in the data set on SUDHL5 [5], 320 nM. Besides, the EC50 turned out to be 220 nM with SUDHL5 [2] and 170 nM in the data set on SUDHL10 [3].
